Experimental data reported in patent US20120101095A1, “ALKOXY-THIENOPYRIMIDINES AS TGF-BETA RECEPTOR KINASE MODULATORS” (priority 2009, published 2012).

Target: T1, GST-ALK5 (Homo sapiens, UniProt P36897)
T1 sequence (P36897 34-503): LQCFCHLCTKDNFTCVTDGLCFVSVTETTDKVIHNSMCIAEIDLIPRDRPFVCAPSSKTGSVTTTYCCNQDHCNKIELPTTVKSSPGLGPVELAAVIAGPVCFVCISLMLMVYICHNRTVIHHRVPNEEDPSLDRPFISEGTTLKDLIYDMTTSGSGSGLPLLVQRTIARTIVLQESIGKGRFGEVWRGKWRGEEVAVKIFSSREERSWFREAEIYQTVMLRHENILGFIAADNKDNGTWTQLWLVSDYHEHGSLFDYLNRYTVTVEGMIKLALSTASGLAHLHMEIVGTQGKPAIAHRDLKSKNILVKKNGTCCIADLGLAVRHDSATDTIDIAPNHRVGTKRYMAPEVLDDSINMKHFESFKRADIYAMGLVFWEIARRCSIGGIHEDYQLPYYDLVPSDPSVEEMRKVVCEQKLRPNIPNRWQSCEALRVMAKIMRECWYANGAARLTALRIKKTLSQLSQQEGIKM
Test: In-vitro (enzyme) kinase assay, 384-well flashplate, GST-SMAD2 substrate
Assay type: biochemical
Settings: 31.2 nM GST-ALK5, 439 nM GST-SMAD2, 3 mM ATP, 30° C., 45 min
Procedure: In-Vitro (Enzyme) Assay for Determination of the Efficacy of Inhibitors of the Inhibition of TGF-Beta-Mediated Effects
The kinase assay was carried out as 384-well flashplate assay. 31.2 nM of GST-ALK5, 439 nM of GST-SMAD2 and 3 mM of ATP (with 0.3 μCi of ^33P-ATP/well) were incubated in a total volume of 35 μl (20 mM of HEPES, 10 mM of MgCl2, 5 mM of MnCl2, 1 mM of DTT, 0.1% of BSA, pH 7.4) without or with test substance (5-10 concentrations) at 30° C. for 45 min. The reaction was stopped using 25 μl of 200 mM EDTA solution, filtered with suction at room temperature after 30 min, and the wells were washed with 3 times 100 μl of 0.9% NaCl solution. Radioactivity was measured in the TopCount. The IC50 values were calculated using RS1 (Table 1). Above and below, all temperatures were indicated in ° C.

Structure (SMILES) | IC50 [nM]
NC(=O)c1sc2nc(OCCOCCO)nc(-c3cccc(Cl)c3)c2c1N [No 66, 5-Amino-4-(3-chloro-phenyl)-2-[2-(2-hydroxy-ethoxy)-ethoxy]-thieno[2,3-d]pyrimidine-6-carboxylic acid amide] | 100 to 500
COCc1cnn(CCOc2nc(-c3cccc(Cl)c3)c3c(N)c(C(N)=O)sc3n2)c1 [No 52, 5-Amino-4-(3-chloro-phenyl)-2-[2-(4-methoxymethyl-pyrazol-1-yl)-ethoxy]-thieno[2,3-d]pyrimidine-6-carboxylic acid amide] | 100 to 500
NC(=O)c1sc2nc(OCCn3cccn3)nc(-c3cccc(Cl)c3)c2c1N [No 42, 5-Amino-4-(3-chloro-phenyl)-2-(2-pyrazol-1-yl-ethoxy)-thieno[2,3-d]pyrimidine-6-carboxylic acid amide] | < 100
Cc1cccc(-c2nc(OCCCn3cccn3)nc3sc(C(N)=O)c(N)c23)n1 [No 49, 5-Amino-4-(6-methyl-pyridin-2-yl)-2-(3-pyrazol-1-yl-propoxy)-thieno[2,3-d]pyrimidine-6-carboxylic acid amide] | < 100
Cc1cccc(-c2nc(OCc3cnn(C)c3)nc3sc(C(N)=O)c(N)c23)n1 [No 33, 5-Amino-2-(1-methyl-1H-pyrazol-4-ylmethoxy)-4-(6-methyl-pyridin-2-yl)-thieno[2,3-d]pyrimidine-6-carboxylic acid amide] | < 100
Cc1cccc(-c2nc(OCc3ccc(OCCN4CCOCC4)cc3)nc3sc(C(N)=O)c(N)c23)n1 [No 35, 5-Amino-4-(6-methyl-pyridin-2-yl)-2-[4-(2-morpholin-4-yl-ethoxy)-benzyloxy]-thieno[2,3-d]pyrimidine-6-carboxylic acid amide] | 100 to 500
Cc1ccc(-c2nc(OCCCn3cccn3)nc3sc(C(N)=O)c(N)c23)o1 [No 39, 5-Amino-4-(5-methyl-furan-2-yl)-2-(3-pyrazol-1-yl-propoxy)-thieno[2,3-d]pyrimidine-6-carboxylic acid amide] | 100 to 500
NC(=O)c1sc2nc(OCCN3CCOCC3=O)nc(-c3cccc(Cl)c3)c2c1N [No 55, 5-Amino-4-(3-chloro-phenyl)-2-[2-(3-oxo-morpholin-4-yl)-ethoxy]-thieno[2,3-d]pyrimidine-6-carboxylic acid amide] | < 100
NC(=O)c1sc2nc(OC[C@@H]3CCC(=O)N3)nc(-c3cccc(Cl)c3)c2c1N [No 75, 5-Amino-4-(3-chloro-phenyl)-2-((S)-5-oxo-pyrrolidin-2-ylmethoxy)-thieno[2,3-d]pyrimidine-6-carboxylic acid amide] | 100 to 500
CC(C)(CO)COc1nc(-c2cccc(Cl)c2)c2c(N)c(C(N)=O)sc2n1 [No 68, 5-Amino-4-(3-chloro-phenyl)-2-(3-hydroxy-2,2-dimethyl-propoxy)-thieno[2,3-d]pyrimidine-6-carboxylic acid amide] | 100 to 500
NC(=O)c1sc2nc(OC[C@H]3CCC(=O)N3)nc(-c3cccc(Cl)c3)c2c1N [No 77, 5-Amino-4-(3-chloro-phenyl)-2-((R)-5-oxo-pyrrolidin-2-ylmethoxy)-thieno[2,3-d]pyrimidine-6-carboxylic acid amide] | 100 to 500
NC(=O)c1sc2nc(OCC3CC3)nc(-c3cccc(C(F)(F)F)c3)c2c1N [No 14, 5-Amino-2-cyclopropylmethoxy-4-(3-trifluoromethyl-phenyl)-thieno[2,3-d]pyrimidine-6-carboxylic acid amide] | > 1000
NC(=O)c1sc2nc(OCCCn3cccn3)nc(-c3cccc(Cl)c3)c2c1N [No 41, 5-Amino-4-(3-chloro-phenyl)-2-(3-pyrazol-1-yl-propoxy)-thieno[2,3-d]pyrimidine-6-carboxylic acid amide] | < 100
Cc1ccc(-c2nc(O[C@H](C)[C@@H](C)O)nc3sc(C(N)=O)c(N)c23)o1 [No 34, 5-Amino-2-((1R,2R)-2-hydroxy-1-methyl-propoxy)-4-(5-methyl-furan-2-yl)-thieno[2,3-d]pyrimidine-6-carboxylic acid amide] | 100 to 500
Cc1ccc(-c2nc(OCc3ccn(C)n3)nc3sc(C(N)=O)c(N)c23)o1 [No 32, 5-Amino-4-(5-methyl-furan-2-yl)-2-(1-methyl-1H-pyrazol-3-ylmethoxy)-thieno[2,3-d]pyrimidine-6-carboxylic acid amide] | 100 to 500
Cn1cnc(COc2nc(-c3cccc(Cl)c3)c3c(N)c(C(N)=O)sc3n2)c1 [No 45, 5-Amino-4-(3-chloro-phenyl)-2-(1-methyl-1H-imidazol-4-ylmethoxy)-thieno[2,3-d]pyrimidine-6-carboxylic acid amide] | < 100

Structure (SMILES) | IC50 [nM]
COc1nc(-c2cccc(C)n2)c2c(N)c(C(N)=O)sc2n1 [No 25, 5-Amino-2-methoxy-4-(6-methyl-pyridin-2-yl)-thieno[2,3-d]pyrimidine-6-carboxylic acid amide] | < 100
NC(=O)CCCOc1nc(-c2cccc(Cl)c2)c2c(N)c(C(N)=O)sc2n1 [No 69, 5-Amino-2-(3-carbamoyl-propoxy)-4-(3-chloro-phenyl)-thieno[2,3-d]pyrimidine-6-carboxylic acid amide] | 100 to 500
Cc1ccc(-c2nc(O[C@@H](C)[C@H](C)O)nc3sc(C(N)=O)c(N)c23)o1 [No 36, 5-Amino-2-((1S,2S)-2-hydroxy-1-methyl-propoxy)-4-(5-methyl-furan-2-yl)-thieno[2,3-d]pyrimidine-6-carboxylic acid amide] | 100 to 500
NC(=O)c1sc2nc(OCCCN3CCCC3=O)nc(-c3cccc(Cl)c3)c2c1N [No 54, 5-Amino-4-(3-chloro-phenyl)-2-[3-(2-oxo-pyrrolidin-1-yl)-propoxy]-thieno[2,3-d]pyrimidine-6-carboxylic acid amide] | 100 to 500
NC(=O)c1sc2nc(OCC3CC3)nc(-c3cc4ccccc4s3)c2c1N [No 2] | > 1000
Cc1cccc(-c2nc(OCc3ccn(C)n3)nc3sc(C(N)=O)c(N)c23)n1 [No 28, 5-Amino-2-(1-methyl-1H-pyrazol-3-ylmethoxy)-4-(6-methyl-pyridin-2-yl)-thieno[2,3-d]pyrimidine-6-carboxylic acid amide] | < 100
NC(=O)COc1nc(-c2cccc(Cl)c2)c2c(N)c(C(N)=O)sc2n1 [No 56, 5-Amino-2-carbamoylmethoxy-4-(3-chloro-phenyl)-thieno[2,3-d]pyrimidine-6-carboxylic acid amide] | < 100
NC(=O)c1sc2nc(OCC3CCCC3)nc(-c3cccc(C(F)(F)F)c3)c2c1N [No 8, 5-Amino-2-cyclopentylmethoxy-4-(3-trifluoromethyl-phenyl)-thieno[2,3-d]pyrimidine-6-carboxylic acid amide] | > 1000
Cn1cc(COc2nc(-c3cccc(Cl)c3)c3c(N)c(C(N)=O)sc3n2)cn1 [No 44, 5-Amino-4-(3-chloro-phenyl)-2-(1-methyl-1H-pyrazol-4-ylmethoxy)-thieno[2,3-d]pyrimidine-6-carboxylic acid amide] | < 100
CC(C)(C)OCCOc1nc(-c2cccc(C(F)(F)F)c2)c2c(N)c(C(N)=O)sc2n1 [No 12, 5-Amino-2-(2-tert-butoxy-ethoxy)-4-(3-trifluoromethyl-phenyl)-thieno[2,3-d]pyrimidine-6-carboxylic acid amide] | 500 to 1000
NC(=O)c1sc2nc(OCC3CC3)nc(-c3cccc(Cl)c3)c2c1N [No 4, 5-Amino-4-(3-chloro-phenyl)-2-cyclopropylmethoxy-thieno[2,3-d]pyrimidine-6-carboxylic acid amide] | < 100
NC(=O)c1sc2nc(OCC3CCCO3)nc(-c3cccc(Cl)c3)c2c1N (centres unmarked) [No 73, 5-Amino-4-(3-chloro-phenyl)-2-(tetrahydro-furan-2-ylmethoxy)-thieno[2,3-d]pyrimidine-6-carboxylic acid amide] | 100 to 500
NC(=O)c1sc2nc(OCC3CCCC3)nc(-c3cccc(Cl)c3)c2c1N [No 7, 5-Amino-4-(3-chloro-phenyl)-2-cyclopentylmethoxy-thieno[2,3-d]pyrimidine-6-carboxylic acid amide] | 500 to 1000
NC(=O)c1sc2nc(OC/C=C\CO)nc(-c3cccc(Cl)c3)c2c1N [No 58, 5-Amino-4-(3-chloro-phenyl)-2-((Z)-4-hydroxy-but-2-enyloxy)-thieno[2,3-d]pyrimidine-6-carboxylic acid amide] | < 100
COc1nc(-c2ccc(C)s2)c2c(N)c(C(N)=O)sc2n1 [No 23, 5-Amino-2-methoxy-4-(5-methyl-thiophen-2-yl)-thieno[2,3-d]pyrimidine-6-carboxylic acid amide] | 100 to 500
NC(=O)c1sc2nc(OCCN3CCOC3=O)nc(-c3cccc(Cl)c3)c2c1N [No 57, 5-Amino-4-(3-chloro-phenyl)-2-[2-(2-oxo-oxazolidin-3-yl)-ethoxy]-thieno[2,3-d]pyrimidine-6-carboxylic acid amide] | < 100
